Results reported in BindingDB's records for doi:10.1002/syn.890150302 (Vanderbilt University, 1993).
“And” between values parts separate entries of the source, which are not always exact repeats. Equal values may be shown once.

Target: D(2) dopamine receptor (Rattus norvegicus, UniProt P61169)
Sequence (P61169 whole entry): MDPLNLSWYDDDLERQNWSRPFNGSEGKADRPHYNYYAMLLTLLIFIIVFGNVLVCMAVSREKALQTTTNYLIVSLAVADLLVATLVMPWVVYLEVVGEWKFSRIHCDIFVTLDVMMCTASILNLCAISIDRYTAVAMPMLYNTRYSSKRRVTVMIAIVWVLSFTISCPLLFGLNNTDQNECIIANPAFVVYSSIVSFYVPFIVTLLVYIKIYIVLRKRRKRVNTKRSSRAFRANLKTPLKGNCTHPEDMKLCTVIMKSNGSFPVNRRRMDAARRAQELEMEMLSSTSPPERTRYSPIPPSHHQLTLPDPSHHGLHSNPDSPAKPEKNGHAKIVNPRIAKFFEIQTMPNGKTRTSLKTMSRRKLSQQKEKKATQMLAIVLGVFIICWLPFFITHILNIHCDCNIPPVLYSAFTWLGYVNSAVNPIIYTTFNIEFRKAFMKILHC

Row | Structure (SMILES) | Ki
1 | NCc1cc(=O)[nH]o1 | > 10 µM
2 | CCN1CCC[C@H]1CNC(=O)c1cc(I)cc(OC)c1OC | 0.0001 µM and 0.00012 µM
3 | c1ccc2c(c1)OCC(C1=NCCN1)O2 (centres undefined) | > 10 µM
4 | O=C(c1ccc(F)cc1)C1CCN(CCn2c(=O)[nH]c3ccccc3c2=O)CC1 [3-(2-{4-[(4-fluorophenyl)carbonyl]piperidin-1-yl}ethyl)-1,2,3,4-tetrahydroquinazoline-2,4-dione] | 0.555 µM and 0.519 µM
5 | CN1CCc2cc3c(cc2[C@H]1[C@@H]1OC(=O)c2c1ccc1c2OCO1)OCO3 [(R)-6-((S)-6-methyl-5,6,7,8-tetrahydro-[1,3]dioxolo[4,5-g]isoquinolin-5-yl)isobenzofuro[5,4-d][1,3]dioxol-8(6H)-one] | > 10 µM
6 | C=CCc1ccccc1OC[C@@H](O)CNC(C)C [ALPRENOLOL,(-)] | > 10 µM and 6.86 µM
7 | C=CCN1CC[C@]2(C)c3cc(O)ccc3C[C@@H]1[C@@H]2C [SKF 10,047 (-)] | > 10 µM
8 | CN1[C@@H]2CC[C@H]1C[C@@H](OC(=O)c1cc(Cl)cc(Cl)c1)C2 [TROPANYL 3,5-DICHLOROBENZOATE] | > 10 µM
9 | COc1cc2nc(N3CCN(C(=O)c4ccco4)CC3)nc(N)c2cc1OC [[3H]-Minipress] | > 10 µM
